Patent US20200399318A1, “PEPTIDE INHIBITORS OF PHOSPHOGLYCERATE MUTASE AND METHODS OF USE” (priority 2016, published 2020)
Where a SMILES comes first, the peptide text is derived from it. Bridges are numbered along the chain shown (N, C = ends). [ ]: non-standard residue; d: D form.

Columns and labels:
B. malayi iPGM = B. malayi iPGM (Brugia malayi, UniProt Q4VWF8); experiment: biochemical
O. volvulus iPGM = O. volvulus iPGM (Onchocerca volvulus, UniProt I6LDA6); experiment: biochemical
E. coli iPGM = E. coli iPGM (Escherichia coli, UniProt P37689); experiment: biochemical
Sequence of E. coli iPGM (P37689 whole entry, looked up): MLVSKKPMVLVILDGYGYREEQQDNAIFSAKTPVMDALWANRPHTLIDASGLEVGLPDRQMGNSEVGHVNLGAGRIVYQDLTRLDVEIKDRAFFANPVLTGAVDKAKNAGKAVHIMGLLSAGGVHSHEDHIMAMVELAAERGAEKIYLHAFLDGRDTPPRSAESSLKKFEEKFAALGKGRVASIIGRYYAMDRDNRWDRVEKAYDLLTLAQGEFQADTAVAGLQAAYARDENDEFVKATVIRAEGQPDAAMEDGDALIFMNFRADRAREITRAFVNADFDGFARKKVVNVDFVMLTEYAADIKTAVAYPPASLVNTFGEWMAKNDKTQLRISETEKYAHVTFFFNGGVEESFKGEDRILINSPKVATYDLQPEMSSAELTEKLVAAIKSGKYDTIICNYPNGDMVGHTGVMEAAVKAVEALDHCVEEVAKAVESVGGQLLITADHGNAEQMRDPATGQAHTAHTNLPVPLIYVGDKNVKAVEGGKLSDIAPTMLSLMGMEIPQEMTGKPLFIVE

D. immitis iPGM = assay type: biochemical, Dirofilaria immitis
[1] = read-out: B. malayi iPGM Max Inhibition
[2] = read-out: O. volvulus iPGM Max Inhibition
[3] = read-out: E. coli iPGM Max Inhibition

Sequence of B. malayi iPGM (Q4VWF8 whole entry, looked up): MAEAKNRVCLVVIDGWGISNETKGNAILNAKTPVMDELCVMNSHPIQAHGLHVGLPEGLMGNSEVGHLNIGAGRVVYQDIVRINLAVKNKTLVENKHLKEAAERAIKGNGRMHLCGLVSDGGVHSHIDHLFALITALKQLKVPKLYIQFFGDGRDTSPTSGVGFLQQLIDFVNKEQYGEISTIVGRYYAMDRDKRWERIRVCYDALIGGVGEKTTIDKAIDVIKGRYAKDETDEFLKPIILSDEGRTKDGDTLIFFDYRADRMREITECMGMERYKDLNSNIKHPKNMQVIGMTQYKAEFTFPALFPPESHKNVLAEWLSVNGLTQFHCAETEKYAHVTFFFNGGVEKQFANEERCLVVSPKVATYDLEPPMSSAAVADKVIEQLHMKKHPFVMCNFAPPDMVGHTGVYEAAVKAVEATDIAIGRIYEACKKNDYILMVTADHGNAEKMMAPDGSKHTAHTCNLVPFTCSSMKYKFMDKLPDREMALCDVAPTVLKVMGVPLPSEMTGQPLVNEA
Sequence of O. volvulus iPGM (I6LDA6 whole entry, looked up): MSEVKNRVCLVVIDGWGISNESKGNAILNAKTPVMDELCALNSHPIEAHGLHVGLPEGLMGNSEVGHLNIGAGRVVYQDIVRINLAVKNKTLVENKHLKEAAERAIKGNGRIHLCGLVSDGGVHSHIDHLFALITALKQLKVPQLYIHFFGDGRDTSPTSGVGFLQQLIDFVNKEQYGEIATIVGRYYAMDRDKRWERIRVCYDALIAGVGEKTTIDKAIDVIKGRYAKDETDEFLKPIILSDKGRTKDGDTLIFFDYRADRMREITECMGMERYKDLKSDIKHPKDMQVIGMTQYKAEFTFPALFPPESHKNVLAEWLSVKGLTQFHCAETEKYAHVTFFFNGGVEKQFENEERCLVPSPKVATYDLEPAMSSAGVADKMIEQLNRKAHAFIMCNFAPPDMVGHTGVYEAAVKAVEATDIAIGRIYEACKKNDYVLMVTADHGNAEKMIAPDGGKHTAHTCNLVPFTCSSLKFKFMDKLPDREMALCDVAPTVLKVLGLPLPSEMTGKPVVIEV

Structure (SMILES)	Emax (B. malayi iPGM; [1]) [%]	Emax (O. volvulus iPGM; [2]) [%]	Emax (E. coli iPGM; [3]) [%]	D. immitis iPGM Max Inhibition (D. immitis iPGM)	O. volvulus iPGM PIC50, M (O. volvulus iPGM) [M]	E. coli iPGM PIC50, M (E. coli iPGM) [M]	B. malayi iPGM PIC50, M (B. malayi iPGM) [M]	pIC50 B. malayi iPGM (B. malayi iPGM)	pIC50 E. coli iPGM (E. coli iPGM)	inhibition at 0.0005 µM (B. malayi iPGM; [1]) [%]	inhibition at 0.0005 µM (O. volvulus iPGM; [2]) [%]	inhibition at 0.0005 µM (E. coli iPGM; [3]) [%]	pIC50 O. volvulus iPGM (O. volvulus iPGM)
CC(C)C[C@H](NC(=O)[C@H](Cc1ccc(O)cc1)NC(=O)[C@@H]1CSCC(=O)N[C@H](Cc2ccc(O)cc2)C(=O)N[C@@H](CC(=O)O)C(=O)N[C@@H](Cc2ccc(O)cc2)C(=O)N2CCC[C@H]2C(=O)NCC(=O)N[C@@H](CC(=O)O)C(=O)N[C@@H](Cc2c[nH]cn2)C(=O)N1)C(=O)N[C@@H](Cc1ccc(O)cc1)C(=O)NCC(=O)N[C@H](C(=O)N[C@@H](CS)C(=O)NCC(N)=O)[C@@H](C)O [Ce-1]	94 ± 3.4	95.4 ± 2.6	96.5 ± 4.2	–	–	–	–	–	–	–	–	–	–
CC(C)C[C@H](NC(=O)[C@H](Cc1ccc(O)cc1)NC(=O)[C@@H]1CSCC(=O)N[C@H](Cc2ccc(O)cc2)C(=O)N[C@@H](CC(=O)O)C(=O)N[C@@H](Cc2ccc(O)cc2)C(=O)N2CCC[C@H]2C(=O)NCC(=O)N[C@@H](CC(=O)O)C(=O)N[C@@H](Cc2ccc(O)cc2)C(=O)N1)C(=O)N[C@@H](Cc1ccc(O)cc1)C(=O)NCC(=O)N[C@H](C(N)=O)[C@@H](C)O [Ce-2b]	91.8 ± 5.4	80.1 ± 2.1	95.3 ± 9	–	–	–	–	–	–	–	–	–	–
CC(C)C[C@H](NC(=O)[C@H](Cc1ccc(O)cc1)NC(=O)[C@@H]1CSCC(=O)N[C@H](Cc2ccc(O)cc2)C(=O)N[C@@H](CC(=O)O)C(=O)N[C@@H](Cc2ccc(O)cc2)C(=O)N2CCC[C@H]2C(=O)NCC(=O)N[C@@H](CC(=O)O)C(=O)N[C@@H](Cc2ccc(O)cc2)C(=O)N1)C(=O)N[C@@H](Cc1ccc(O)cc1)C(=O)NCC(N)=O [Ce-2c]	88.2	78.4	89.1	–	–	–	–	–	–	–	–	–	–
NC(=O)[C@H](Cc1ccc(O)cc1)NC(=O)[C@@H]1CSCC(=O)N[C@H](Cc2ccc(O)cc2)C(=O)N[C@@H](CC(=O)O)C(=O)N[C@@H](Cc2ccc(O)cc2)C(=O)N2CCC[C@H]2C(=O)NCC(=O)N[C@@H](CC(=O)O)C(=O)N[C@@H](Cc2ccc(O)cc2)C(=O)N1 [Ce-2f] ({CH2CO}-[dY]DYPGDYCY-NH2; thioether N-8)	14.8	-4.3	79.6	–	–	–	–	–	–	–	–	–	–
CC[C@H](C)[C@@H]1NC(=O)[C@H](CCCNC(=N)N)NC(=O)[C@H](Cc2ccccc2)NC(=O)[C@@H]2CCCN2C(=O)[C@H](CC(N)=O)NC(=O)[C@H](C)NC(=O)[C@H](CC(C)C)NC(=O)[C@H]([C@@H](C)O)NC(=O)[C@H]([C@@H](C)CC)NC(=O)[C@H](Cc2ccc(O)cc2)NC(=O)CSC[C@@H](C(=O)NCC(N)=O)NC(=O)[C@H](Cc2c[nH]cn2)NC(=O)[C@H](CC(C)C)NC1=O [Ce-3] ({CH2CO}-YITLANPFRILHCG-NH2; thioether N-13)	13.3 ± 2	22.9 ± 30.8	91.4 ± 1.3	−30.1 ± 32.2	5.26 ± 0.18	6.27 ± 0.10	–	–	–	–	–	–	–
CC[C@H](C)[C@@H]1NC(=O)[C@H](CCCNC(=N)N)NC(=O)[C@H](Cc2ccccc2)NC(=O)[C@@H]2CCCN2C(=O)[C@H](CC(N)=O)NC(=O)[C@H](C)NC(=O)[C@H](CC(C)C)NC(=O)[C@H]([C@@H](C)O)NC(=O)[C@H]([C@@H](C)O)NC(=O)[C@H](Cc2ccc(O)cc2)NC(=O)CSC[C@@H](C(=O)NCC(N)=O)NC(=O)[C@H](Cc2c[nH]cn2)NC(=O)[C@H](CC(C)C)NC1=O [Ce-4] ({CH2CO}-YTTLANPFRILHCG-NH2; thioether N-13)	2.9 ± 3.3	23 ± 35.7	44.3 ± 1.9	−22.1 ± 35.5	5.37 ± 0.14	–	–	–	–	–	–	–	–
CC(C)C[C@H](NC(=O)[C@H](Cc1ccc(O)cc1)NC(=O)[C@@H]1CSCC(=O)N[C@H](Cc2ccc(O)cc2)C(=O)N[C@@H](CC(=O)O)C(=O)N[C@@H](Cc2ccc(O)cc2)C(=O)N2CCC[C@H]2C(=O)NCC(=O)N[C@@H](CC(=O)O)C(=O)N[C@@H](Cc2ccc(O)cc2)C(=O)N1)C(N)=O [Ce-2e] ({CH2CO}-[dY]DYPGDYCYL-NH2; thioether N-8)	82.7 ± 6.1	55.5 ± 1.4	94.5 ± 9	–	–	–	–	–	–	–	–	–	–
CC(C)C[C@@H]1NC(=O)[C@@H](Cc2ccc(O)cc2)NC(=O)CSC[C@@H](C(=O)N[C@@H](CC(N)=O)C(=O)N[C@H](C(=O)N[C@@H](CS)C(N)=O)[C@@H](C)O)NC(=O)[C@H](CC(N)=O)NC(=O)[C@@H]2CCCN2C(=O)[C@H](Cc2c[nH]c3ccccc23)NC(=O)[C@H](CCC(=O)O)NC1=O [Bm-4a] ({CH2CO}-[dY]LEWPNCNTC-NH2; thioether N-7)	88 ± 0.4	87.8 ± 4.1	78.3 ± 3.4	−90.5 ± 1.5	6.14 ± 0.62	5.58 ± 0.19	6.31 ± 0.29	–	–	–	–	–	–
CC(C)C[C@@H]1NC(=O)[C@@H](Cc2ccc(O)cc2)NC(=O)CSC[C@@H](C(=O)N[C@@H](CO)C(=O)N[C@H](C(=O)N[C@@H](CS)C(=O)NCC(N)=O)[C@@H](C)O)NC(=O)[C@H](CC(N)=O)NC(=O)[C@@H]2CCCN2C(=O)[C@H](Cc2c[nH]c3ccccc23)NC(=O)[C@H](CC(=O)O)NC1=O [Bm-5] ({CH2CO}-[dY]LDWPNCSTCG-NH2; thioether N-7)	84.7 ± 1.2	83.1 ± 7.3	74.3 ± 9.5	−87.1 ± 3.2	5.99 ± 0.69	5.54 ± 0.20	–	6.16	–	–	–	–	–
CC(=O)N[C@H](Cc1ccc(O)cc1)C(=O)N[C@@H](CC(=O)O)C(=O)N[C@@H](Cc1ccc(O)cc1)C(=O)N1CCC[C@H]1C(=O)NCC(=O)N[C@@H](CC(=O)O)C(=O)N[C@@H](Cc1ccc(O)cc1)C(=O)N[C@@H](CO)C(=O)N[C@@H](Cc1ccc(O)cc1)C(=O)N[C@@H](CC(C)C)C(=O)N[C@@H](Cc1ccc(O)cc1)C(=O)NCC(=O)N[C@H](C(=O)N[C@@H](CS)C(=O)NCC(N)=O)[C@@H](C)O [Ce-L2] (Ac-[dY]DYPGDYSYLYGTCG-NH2)	48.2 ± 18.2	40.2 ± 27.6	95.1 ± 5.2	−44 ± 22.6	–	–	4.89 ± 0.21	–	5.88	–	–	–	–
CC(C)[C@@H]1NC(=O)[C@H](C)NC(=O)[C@@H](Cc2ccc(O)cc2)NC(=O)CSC[C@@H](C(=O)N[C@@H](CCCNC(=N)N)C(=O)N[C@H](C(=O)N[C@@H](CS)C(=O)NCC(N)=O)[C@@H](C)O)NC(=O)[C@H](CC(N)=O)NC(=O)[C@@H]2CCCN2C(=O)[C@H](Cc2c[nH]c3ccccc23)NC1=O [Bm-7] ({CH2CO}-[dY]AVWPNCRTCG-NH2; thioether N-7)	74 ± 10.1	78 ± 19.9	69.7 ± 12.3	−83.1 ± 9.7	5.37 ± 0.52	5.12 ± 0.09	–	5.28	–	–	–	–	–
CC(C)C[C@H](NC(=O)[C@H](Cc1ccc(O)cc1)NC(=O)[C@@H]1CSCC(=O)N[C@H](Cc2ccc(O)cc2)C(=O)N[C@@H](CC(=O)O)C(=O)N[C@@H](Cc2ccc(O)cc2)C(=O)N2CCC[C@H]2C(=O)NCC(=O)N[C@@H](CC(=O)O)C(=O)N[C@@H](Cc2ccc(O)cc2)C(=O)N1)C(=O)N[C@@H](Cc1ccc(O)cc1)C(=O)NCC(=O)N[C@H](C(=O)N[C@@H](CO)C(=O)NCC(N)=O)[C@@H](C)O [Ce-2S]	97.7 ± 0.6	97 ± 1.6	105 ± 2.5	–	–	–	–	–	–	77.1 ± 7.5	69.8 ± 9.3	68.1 ± 8.9	–
C[C@@H](O)[C@H](NC(=O)[C@H](CO)NC(=O)[C@@H]1CSCC(=O)N[C@H](Cc2ccc(O)cc2)C(=O)N2CCC[C@H]2C(=O)N[C@@H](CCC(=O)O)C(=O)N[C@@H](Cc2c[nH]c3ccccc23)C(=O)N2CCC[C@H]2C(=O)N[C@@H](CC(N)=O)C(=O)N1)C(=O)N[C@@H](CS)C(=O)NCC(N)=O [Bm-6] ({CH2CO}-[dY]PEWPNCSTCG-NH2; thioether N-7)	86.8 ± 0.6	86 ± 3.2	77.4 ± 4.3	−90.2 ± 1.2	6.08 ± 0.53	5.55 ± 0.07	–	6.16	–	–	–	–	–
CC[C@H](C)[C@@H]1NC(=O)[C@H](CCC(=O)O)NC(=O)[C@@H]2CCCN2C(=O)[C@H](C)NC(=O)[C@H](CC(N)=O)NC(=O)[C@@H]2CCCN2C(=O)[C@H](Cc2c[nH]c3ccccc23)NC(=O)[C@H](CO)NC(=O)[C@@H](Cc2ccc(O)cc2)NC(=O)CSC[C@@H](C(=O)N[C@@H](CS)C(=O)NCC(N)=O)NC(=O)[C@H](CCCCN)NC(=O)[C@H](Cc2c[nH]c3ccccc23)NC1=O [Bm-1] ({CH2CO}-[dY]SWPNAPEIWKCCG-NH2; thioether N-12)	82.8 ± 0.9	82.1 ± 5.4	60.6 ± 9	−85.9 ± 0.2	5.88 ± 0.53	–	–	5.89	5.31	–	–	–	–
CC(C)C[C@@H]1NC(=O)[C@@H](Cc2ccc(O)cc2)NC(=O)CSC[C@@H](C(=O)N[C@@H](CC(N)=O)C(=O)N[C@H](C(=O)N[C@@H](CS)C(=O)NCC(N)=O)[C@@H](C)O)NC(=O)[C@H](CC(N)=O)NC(=O)[C@@H]2CCCN2C(=O)[C@H](Cc2c[nH]c3ccccc23)NC(=O)[C@H](CCC(=O)O)NC1=O [Bm-4] ({CH2CO}-[dY]LEWPNCNTCG-NH2; thioether N-7)	86.3 ± 1.4	85.7 ± 6.5	76.3 ± 8.3	−88.1 ± 0.8	–	5.56 ± 0.16	–	6.24	–	–	–	–	6.10
